# Results: patent US20240238076A1, “PROCESS FOR PRODUCING VASCULAR PROSTHESES” (Medizinische Universität Wien, priority 2021, published 2024)
# System: HUVECs
# Assay: XTT cytotoxicity test with HUVEC cultures
# Format: cell-based, human
# Conditions: 24 h incubation, 10-fold dilution series from 450 μmol/ml
# Method: Human umbilical vein endothelial cells (HUVEC, pooled donator, Lonza, Switzerland) were cultivated in endothelial growth medium (EGM-2, Lonza, Switzerland) supplemented with 10% of FBS. The exchange of medium was conducted every other day. The cells were used for the experiments between passage 3 and 6.
# XTT (2,3-bis(2-methoxy-4-nitro-5-sulfophenyl)-5-[(phenylamino)carbonyl)-2H-tetrazoliumhydroxide) can be reduced to a formazan product in viable cells. The result can be determined by photometric measurements and correlated with the number of viable cells. The assay was conducted based on ISO10993-5.
# HUVECs or macrophages were seeded on the polymer disks at a cell number of 10,000 cells/disk in a 96 well plate for 24 h until a confluent cell layer was formed. XTT powder was dissolved in a cell culture medium with 60° C. at a concentration of 1 mg/ml. PMS (phenazine methosulfate, Sigma-Aldrich, USA) was dissolved in PBS at a concentration of 5 mM. For preparing a working solution, which was added to cells, PMS was pipetted into the XTT solution at a concentration of 25 μM. The cells were incubated with 50 μl of this XTT working solution for 4 h at 37° C. in a cell culture incubator. The medium was then transferred to a new 96 well plate, and absorption at 450 nm was measured with a reference wavelength of 620 nm. The results are shown in FIG. 9 as mean values of three determinations. […]
smiles,measurement,value
"CC(C)(C)NCCNC(C)(C)C [TBEDA, N,N′-di-tert-butylethylenediamine]",Concentration from which the viability of HUVECs was at an acceptable level,45000 µM
